Results reported in patent US8822530B2, “Sulfur derivatives as chemokine receptor modulators” (Allergan, Inc., priority 2010, dated 2014).

Biological target: T1, CCR2 receptor (Homo sapiens, UniProt P41597)
T1 construct: expressed in transfected cells
Assay: Calcium activity assay on FLIPR Tetra in HEK-Gqi5 cells stably expressing CCR2
Type: cell-based
Protocol: HEK-Gqi5 cells stably expressing CCR2 were cultured in DMEM high glucose, 10% FBS, 1% PSA, 400 μg/ml geneticin and 50 μg/ml hygromycin. Appropriate positive control chemokines (MCP-1, MIP1A or RANTES) was used as the positive control agonist for screening compound-induced calcium activity assayed on the FLIPR^Tetra. The drug plates were prepared in 384-well microplates using the EP3 and the MultiPROBE robotic liquid handling systems. Compounds were synthesized and tested for CCR2 activity.

T1 sequence (P41597 whole entry): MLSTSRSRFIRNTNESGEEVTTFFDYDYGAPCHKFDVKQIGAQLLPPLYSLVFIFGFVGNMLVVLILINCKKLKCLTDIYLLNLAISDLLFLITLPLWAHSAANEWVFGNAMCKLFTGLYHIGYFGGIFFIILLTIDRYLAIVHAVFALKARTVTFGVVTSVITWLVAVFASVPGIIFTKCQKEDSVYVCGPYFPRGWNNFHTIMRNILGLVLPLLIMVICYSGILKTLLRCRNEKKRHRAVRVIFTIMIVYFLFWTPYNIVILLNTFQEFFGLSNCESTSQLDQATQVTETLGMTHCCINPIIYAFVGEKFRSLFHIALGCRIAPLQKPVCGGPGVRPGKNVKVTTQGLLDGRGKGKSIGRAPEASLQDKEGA

SMILES	CCR2 % ANTAGONISM [%]	IC50 [nM]
O=C(NCCN1CCCC1)c1cccc(CS(=O)(=O)c2ccc(Cl)cc2NS(=O)(=O)c2ccc(Cl)c(C(F)(F)F)c2)c1	110	817
CN(C)C(=O)c1ccccc1CSc1ccc(Cl)cc1NS(=O)(=O)c1ccc(Cl)c(C(F)(F)F)c1 [2-({[4-chloro-2-({[4-chloro-3-(trifluoromethyl)phenyl]sulfonyl}amino)phenyl]sulfanyl}methyl)-N,N-dimethylbenzamide]	71	171
CCNC(=O)c1ccccc1CSc1ccc(Cl)cc1NS(=O)(=O)c1ccc(Cl)c(C(F)(F)F)c1 [2-({[4-chloro-2-({[4-chloro-3-(trifluoromethyl)phenyl]sulfonyl}amino)phenyl]sulfanyl}methyl)-N-ethylbenzamide]	92	149
NC(=O)c1ccccc1CSc1ccc(Cl)cc1NS(=O)(=O)c1ccc(Cl)c(C(F)(F)F)c1 [2-({[4-chloro-2-({[4-chloro-3-(trifluoromethyl)phenyl]sulfonyl}amino)phenyl]sulfanyl}methyl)benzamide]	88	167
O=C(O)c1ccccc1CSc1ccc(Cl)cc1NS(=O)(=O)c1ccc(Cl)c(C(F)(F)F)c1 [2-({[4-chloro-2-({[4-chloro-3-(trifluoromethyl)phenyl]sulfonyl}amino)phenyl]sulfanyl}methyl)benzoic acid]	99	79
O=C(O)c1ccccc1C[S+]([O-])c1ccc(Cl)cc1NS(=O)(=O)c1ccc(Cl)c(C(F)(F)F)c1 (centres unmarked) [2-({[4-chloro-2-({[4-chloro-3-(trifluoromethyl)phenyl]sulfonyl}amino)phenyl]sulfinyl}methyl)benzoic acid]	99	853
O=C(O)c1ccccc1CS(=O)(=O)c1ccc(Cl)cc1NS(=O)(=O)c1ccc(Cl)c(C(F)(F)F)c1 [2-({[4-chloro-2-({[4-chloro-3-(trifluoromethyl)phenyl]sulfonyl}amino)phenyl]sulfonyl}methyl)benzoic acid]	105	–
O=C(O)c1ccccc1CSc1ccc(Cl)cc1NS(=O)(=O)c1cc2ccccc2o1 [2-[({2-[(1-benzofuran-2-ylsulfonyl)amino]-4-chlorophenyl}sulfanyl)methyl]benzoic acid]	101	7
O=C(O)c1ccccc1C[S+]([O-])c1ccc(Cl)cc1NS(=O)(=O)c1cc2ccccc2o1 (centres unmarked) [2-[({2-[(1-benzofuran-2-ylsulfonyl)amino]-4-chlorophenyl}sulfinyl)methyl]benzoic acid]	98	806
O=C(O)c1ccccc1CS(=O)(=O)c1ccc(Cl)cc1NS(=O)(=O)c1cc2ccccc2o1 [2-[({2-[(1-benzofuran-2-ylsulfonyl)amino]-4-chlorophenyl}sulfonyl)methyl]benzoic acid]	96	–
O=C(O)c1ccccc1CSc1ccc(F)cc1NS(=O)(=O)c1cc2ccccc2o1 [2-[({2-[(1-benzofuran-2-ylsulfonyl)amino]-4-fluorophenyl}sulfanyl)methyl]benzoic acid]	99	11
O=C(O)c1ccccc1C[S+]([O-])c1ccc(F)cc1NS(=O)(=O)c1cc2ccccc2o1 (centres unmarked) [2-[({2-[(1-benzofuran-2-ylsulfonyl)amino]-4-fluorophenyl}sulfinyl)methyl]benzoic acid]	92	1850
O=C(O)c1ccccc1CS(=O)(=O)c1ccc(F)cc1NS(=O)(=O)c1cc2ccccc2o1 [2-[({2-[(1-benzofuran-2-ylsulfonyl)amino]-4-fluorophenyl}sulfonyl)methyl]benzoic acid]	89	2470
O=C(O)CCSc1ccc(Cl)cc1NS(=O)(=O)c1cc2ccccc2o1 [3-({2-[(1-benzofuran-2-ylsulfonyl)amino]-4-chlorophenyl}sulfanyl)propanoic acid]	99	46
O=C(NCCN1CCCC1)c1cccc(CSc2ccc(Cl)cc2NS(=O)(=O)c2ccc(Cl)c(C(F)(F)F)c2)c1 [3-({[4-chloro-2-({[4-chloro-3-(trifluoromethyl)phenyl]sulfonyl}amino)phenyl]sulfanyl}methyl)-N-[2-(pyrrolidin-1-yl)ethyl]benzamide]	97	2170
O=C(O)c1cccc(CSc2ccc(Cl)cc2NS(=O)(=O)c2ccc(Cl)c(C(F)(F)F)c2)c1 [3-({[4-chloro-2-({[4-chloro-3-(trifluoromethyl)phenyl]sulfonyl}amino)phenyl]sulfanyl}methyl)benzoic acid]	102	56

SMILES	CCR2 % ANTAGONISM [%]	IC50 [nM]
O=C(NCCN1CCCC1)c1cccc(C[S+]([O-])c2ccc(Cl)cc2NS(=O)(=O)c2ccc(Cl)c(C(F)(F)F)c2)c1 (centres unmarked) [3-({[4-chloro-2-({[4-chloro-3-(trifluoromethyl)phenyl]sulfonyl}amino)phenyl]sulfinyl}methyl)-N-[2-(pyrrolidin-1-yl)ethyl]benzamide]	105	910
O=C(O)c1cccc(C[S+]([O-])c2ccc(Cl)cc2NS(=O)(=O)c2ccc(Cl)c(C(F)(F)F)c2)c1 (centres unmarked) [3-({[4-chloro-2-({[4-chloro-3-(trifluoromethyl)phenyl]sulfonyl}amino)phenyl]sulfinyl}methyl)benzoic acid]	89	–
O=C(NCC[N+]1([O-])CCCC1)c1cccc(CS(=O)(=O)c2ccc(Cl)cc2NS(=O)(=O)c2ccc(Cl)c(C(F)(F)F)c2)c1 [3-({[4-chloro-2-({[4-chloro-3-(trifluoromethyl)phenyl]sulfonyl}amino)phenyl]sulfonyl}methyl)-N-[2-(1-oxidopyrrolidin-1-yl)ethyl]benzamide]	51	–
O=C(O)c1cccc(CS(=O)(=O)c2ccc(Cl)cc2NS(=O)(=O)c2ccc(Cl)c(C(F)(F)F)c2)c1 [3-({[4-chloro-2-({[4-chloro-3-(trifluoromethyl)phenyl]sulfonyl}amino)phenyl]sulfonyl}methyl)benzoic acid]	101	1580
CCN(C)C(=O)CCSc1ccc(Cl)cc1NS(=O)(=O)c1ccc(Cl)cc1F [3-[(4-chloro-2-{[(4-chloro-2-fluorophenyl)sulfonyl]amino}phenyl)sulfanyl]-N-ethyl-N-methylpropanamide]	49	–
O=C(O)CCSc1ccc(Cl)cc1NS(=O)(=O)c1ccc(Cl)cc1F [3-[(4-chloro-2-{[(4-chloro-2-fluorophenyl)sulfonyl]amino}phenyl)sulfanyl]propanoic acid]	102	129
CCN(C)C(=O)CC[S+]([O-])c1ccc(Cl)cc1NS(=O)(=O)c1ccc(Cl)cc1F (centres unmarked) [3-[(4-chloro-2-{[(4-chloro-2-fluorophenyl)sulfonyl]amino}phenyl)sulfinyl]-N-ethyl-N-methylpropanamide]	89	7520
O=C(O)CC[S+]([O-])c1ccc(Cl)cc1NS(=O)(=O)c1ccc(Cl)cc1F (centres unmarked) [3-[(4-chloro-2-{[(4-chloro-2-fluorophenyl)sulfonyl]amino}phenyl)sulfinyl]propanoic acid]	83	–
CCN(C)C(=O)CCS(=O)(=O)c1ccc(Cl)cc1NS(=O)(=O)c1ccc(Cl)cc1F [3-[(4-chloro-2-{[(4-chloro-2-fluorophenyl)sulfonyl]amino}phenyl)sulfonyl]-N-ethyl-N-methylpropanamide]	87	2260
O=C(O)CCS(=O)(=O)c1ccc(Cl)cc1NS(=O)(=O)c1ccc(Cl)cc1F [3-[(4-chloro-2-{[(4-chloro-2-fluorophenyl)sulfonyl]amino}phenyl)sulfonyl]propanoic acid]	90	–
CCN(CC)C(=O)CC[S+]([O-])c1ccc(Cl)cc1NS(=O)(=O)c1ccc(Cl)c(C(F)(F)F)c1 (centres unmarked) [3-{[4-chloro-2-({[4-chloro-3-(trifluoromethyl)phenyl]sulfonyl}amino)phenyl]sulfinyl}-N,N-diethylpropanamide]	56	1690
CCN(CC)C(=O)CCS(=O)(=O)c1ccc(Cl)cc1NS(=O)(=O)c1ccc(Cl)c(C(F)(F)F)c1 [3-{[4-chloro-2-({[4-chloro-3-(trifluoromethyl)phenyl]sulfonyl}amino)phenyl]sulfonyl}-N,N-diethylpropanamide]	61	1860
O=C(NCC[N+]1([O-])CCCC1)c1ccc(CSc2ccc(Cl)cc2NS(=O)(=O)c2ccc(Cl)c(C(F)(F)F)c2)cc1 [4-({[4-chloro-2-({[4-chloro-3-(trifluoromethyl)phenyl]sulfonyl}amino)phenyl]sulfanyl}methyl)-N-[2-(1-oxidopyrrolidin-1-yl)ethyl]benzamide]	31	–
O=C(NCCN1CCCC1)c1ccc(CSc2ccc(Cl)cc2NS(=O)(=O)c2ccc(Cl)c(C(F)(F)F)c2)cc1 [4-({[4-chloro-2-({[4-chloro-3-(trifluoromethyl)phenyl]sulfonyl}amino)phenyl]sulfanyl}methyl)-N-[2-(pyrrolidin-1-yl)ethyl]benzamide]	75	2320
O=C(O)c1ccc(CSc2ccc(Cl)cc2NS(=O)(=O)c2ccc(Cl)c(C(F)(F)F)c2)cc1 [4-({[4-chloro-2-({[4-chloro-3-(trifluoromethyl)phenyl]sulfonyl}amino)phenyl]sulfanyl}methyl)benzoic acid]	102	255
O=C(NCCN1CCCC1)c1ccc(C[S+]([O-])c2ccc(Cl)cc2NS(=O)(=O)c2ccc(Cl)c(C(F)(F)F)c2)cc1 (centres unmarked) [4-({[4-chloro-2-({[4-chloro-3-(trifluoromethyl)phenyl]sulfonyl}amino)phenyl]sulfinyl}methyl)-N-[2-(pyrrolidin-1-yl)ethyl]benzamide]	85	1430
